In brackets after ≈: the same amount, converted by molar mass.
Assays:
[1] = test system: Jurkat (acute lymphoblastic leukemia) cells; experiment: MTT cell growth inhibition, leukemia cells; type: cell-based, human; conditions: Homo sapiens, Jurkat, 72 h, MTT; for IC50: read-out: IC50; for IC90: read-out: IC90
How it was run: (§1)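 Leukemia cells (6000 per well) in RPMI-1640 with 10% FBS were exposed to 7-substituted fangchinoline derivatives at varying concentrations the day after seeding. After 72 h at 37° C., 5% CO2, viable cell concentration was measured by MTT.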

[2] = test system: Kasumi-1 (acute myeloid leukemia M2 type) cells; experiment: MTT cell growth inhibition, leukemia cells; type: cell-based, human; conditions: for IC50 / IC90: Homo sapiens, Kasumi-1, 72 h, MTT; for IC50: read-out: IC50; for IC90: read-out: IC90
How it was run: as §1

[3] = test system: RPMI 8226 (multiple myeloma) cells; experiment: MTT cell growth inhibition, multiple myeloma cells; type: cell-based, human; conditions: for IC50 / IC90: Homo sapiens, RPMI 8226, 72 h, MTT; for IC50: read-out: IC50; for IC90: read-out: IC90
How it was run: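 Viable-cell readout by MTT after 72 h exposure (37° C, 5% CO2) of RPMI 8226 cells to a range of compound concentrations, added one day post-seeding. Cells were seeded at 6000 per well in RPMI-1640 containing 10% FBS.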

[4] = test system: CNE (nasopharyngeal carcinoma) cells; experiment: MTT cell growth inhibition, solid tumor cells; type: cell-based, human; conditions: for IC50 / IC90: Homo sapiens, CNE, 72 h, MTT; for IC50: read-out: IC50; for IC90: read-out: IC90
How it was run: (§2)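 In this assay, 6000 tumor cells per well received serially varied compound concentrations after a 24 h settling period in DMEM with 10% FBS. Plates stayed 72 h at 37 °C under 5% CO2, after which MTT quantified surviving cells.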

[5] = test system: CaEs-17 (esophageal cancer) cells; experiment: MTT cell growth inhibition, solid tumor cells; type: cell-based, human; conditions: for IC50 / IC90: Homo sapiens, CaEs17, CaEs-17, 72 h, MTT; for IC50: read-out: IC50; for IC90: read-out: IC90
How it was run: as §2

[6] = test system: PANC-1 (pancreatic cancer) cells; experiment: MTT cell growth inhibition, solid tumor cells; type: cell-based, human; conditions: for IC50 / IC90: Homo sapiens, PANC-1, 72 h, MTT; for IC50: read-out: IC50; for IC90: read-out: IC90
How it was run: as §2

[7] = test system: PC-3 (prostate cancer) cells; experiment: MTT cell growth inhibition, solid tumor cells; type: cell-based, human; conditions: Homo sapiens, PC-3, 72 h, MTT; for IC50: read-out: IC50; for IC90: read-out: IC90
How it was run: as §2

[8] = test system: SK-OV-3 (ovarian cancer) cells; experiment: MTT cell growth inhibition, solid tumor cells; type: cell-based, human; conditions: Homo sapiens, SK-OV-3, 72 h, MTT; for IC50: read-out: IC50; for IC90: read-out: IC90
How it was run: as §2

[9] = test system: A549 (human lung cancer) cells; experiment: MTT cell growth inhibition, solid tumor cells; type: cell-based; conditions: Homo sapiens, A549, 72 h, MTT; for IC50: read-out: IC50; for IC90: read-out: IC90
How it was run: as §2

[10] = test system: Becap-37 (human breast cancer) cells; experiment: MTT cell growth inhibition, solid tumor cells; type: cell-based; conditions: for IC50 / IC90: Homo sapiens, Becap-37, 72 h, MTT; for IC50: read-out: IC50; for IC90: read-out: IC90
How it was run: as §2

[11] = test system: Hela (human cervical cancer) cells; experiment: MTT cell growth inhibition, solid tumor cells; type: cell-based; conditions: for IC50 / IC90: Homo sapiens, Hela, 72 h, MTT; for IC50: read-out: IC50; for IC90: read-out: IC90
How it was run: as §2

[12] = test system: Hep G2 (human liver cancer) cells; experiment: MTT cell growth inhibition, solid tumor cells; type: cell-based; conditions: for IC50 / IC90: Homo sapiens, HepG2, Hep G2, 72 h, MTT; for IC50: read-out: IC50; for IC90: read-out: IC90
How it was run: as §2

[13] = test system: Hep-2 (laryngeal carcinoma) cells; experiment: MTT cell growth inhibition, solid tumor cells; type: cell-based; conditions: Homo sapiens, Hep-2, 72 h, MTT; for IC50: read-out: IC50; for IC90: read-out: IC90
How it was run: as §2

[14] = test system: MG-63 (osteosarcoma) cells; experiment: MTT cell growth inhibition, solid tumor cells; type: cell-based; conditions: Homo sapiens, MG-63, 72 h, MTT; for IC50: read-out: IC50; for IC90: read-out: IC90
How it was run: as §2

[15] = test system: MGC-803 (human gastric cancer) cells; experiment: MTT cell growth inhibition, solid tumor cells; type: cell-based; conditions: MGC-803, 72 h, MTT; for IC50: read-out: IC50; for IC90: read-out: IC90
How it was run: as §2

[16] = test system: RKO (human colon adenocarcinoma) cells; experiment: MTT cell growth inhibition, solid tumor cells; type: cell-based; conditions: Homo sapiens, RKO, 72 h, MTT; for IC50: read-out: IC50; for IC90: read-out: IC90
How it was run: as §2

[17] = test system: U87-MG (malignant glioma) cells; experiment: MTT cell growth inhibition, solid tumor cells; type: cell-based; conditions: Homo sapiens, U-87 MG, U87-MG, 72 h, MTT; for IC50: read-out: IC50; for IC90: read-out: IC90
How it was run: as §2

tumor = experiment: Antitumor activity compared with fangchinoline, overall statement; type: cell-based; conditions: tumor type not specified
[18] = relative to fangchinoline, Table 2

IC50 [1]	IC90 [1]	IC50 [2]	IC90 [2]	IC50 [3]	IC90 [3]	IC50 [4]	IC90 [4]	IC50 [5]	IC90 [5]	IC50 [6]	IC90 [6]	IC50 [7]	IC90 [7]	IC50 [8]	IC90 [8]	IC50 [9]	IC90 [9]	IC50 [10]	IC90 [10]	Compound	other results
0.56 µg/mL (≈ 0.761 µM)	0.99 µg/mL (≈ 1.35 µM)	0.76 µg/mL (≈ 1.03 µM)	1.75 µg/mL (≈ 2.38 µM)	0.05 µg/mL (≈ 0.0679 µM)	0.44 µg/mL (≈ 0.598 µM)	0.8 µg/mL (≈ 1.09 µM)	1.7 µg/mL (≈ 2.31 µM)	0.49 µg/mL (≈ 0.666 µM)	1.95 µg/mL (≈ 2.65 µM)	1.14 µg/mL (≈ 1.55 µM)	3.34 µg/mL (≈ 4.54 µM)	2.53 µg/mL (≈ 3.44 µM)	3.69 µg/mL (≈ 5.01 µM)	1.54 µg/mL (≈ 2.09 µM)	3.5 µg/mL (≈ 4.76 µM)	1.94 µg/mL (≈ 2.64 µM)	5.89 µg/mL (≈ 8 µM)	0.74 µg/mL (≈ 1.01 µM)	1.88 µg/mL (≈ 2.55 µM)	COc1ccc2cc1Oc1ccc(cc1)C[C@H]1c3cc(c(OC)cc3CCN1C)Oc1c(OCC(O)CNCC3CC3)c(OC)cc3c1[C@H](C2)N(C)CC3 (some centres unmarked) [BS-FC-405]	anti-CNE activity increase over fangchinoline [4, 18]: ~3 fold; anti-CaEs-17 activity increase over fangchinoline [5, 18]: ~4 fold; anti-PANC-1 activity increase over fangchinoline [6, 18]: ~3 fold; anti-Becap37 activity increase over fangchinoline [10, 18]: ~3 fold; IC50 [11]: 1.25 µg/mL (≈ 1.7 µM); IC90 [11]: 2 µg/mL (≈ 2.72 µM); IC50 [12]: 0.71 µg/mL (≈ 0.965 µM); IC90 [12]: 1.7 µg/mL (≈ 2.31 µM); anti-Hep G2 activity increase over fangchinoline [12, 18]: ~3 fold; IC50 [13]: 1.67 µg/mL (≈ 2.27 µM); IC90 [13]: 4.81 µg/mL (≈ 6.54 µM); IC50 [14]: 0.96 µg/mL (≈ 1.3 µM); IC90 [14]: 1.7 µg/mL (≈ 2.31 µM); IC50 [15]: 0.88 µg/mL (≈ 1.2 µM); IC90 [15]: 3.59 µg/mL (≈ 4.88 µM); IC50 [16]: 0.46 µg/mL (≈ 0.625 µM); IC90 [16]: 0.92 µg/mL (≈ 1.25 µM); IC50 [17]: 0.7 µg/mL (≈ 0.951 µM); IC90 [17]: 1.41 µg/mL (≈ 1.92 µM); antitumor activity compared with that of fangchinoline (tumor): significantly superior
1.24 µg/mL (≈ 1.61 µM)	5.47 µg/mL (≈ 7.12 µM)	1.45 µg/mL (≈ 1.89 µM)	3.63 µg/mL (≈ 4.73 µM)	0.02 µg/mL (≈ 0.026 µM)	0.5 µg/mL (≈ 0.651 µM)	1.66 µg/mL (≈ 2.16 µM)	5.24 µg/mL (≈ 6.82 µM)	1.82 µg/mL (≈ 2.37 µM)	7.67 µg/mL (≈ 9.99 µM)	5.55 µg/mL (≈ 7.23 µM)	9 µg/mL (≈ 11.7 µM)	3.68 µg/mL (≈ 4.79 µM)	9.36 µg/mL (≈ 12.2 µM)	4.6 µg/mL (≈ 5.99 µM)	12.9 µg/mL (≈ 16.8 µM)	3.77 µg/mL (≈ 4.91 µM)	11.7 µg/mL (≈ 15.2 µM)	2.42 µg/mL (≈ 3.15 µM)	6.16 µg/mL (≈ 8.02 µM)	COc1ccc2cc1Oc1ccc(cc1)C[C@H]1c3cc(c(OC)cc3CCN1C)Oc1c(OCC(O)CN3CCSCC3)c(OC)cc3c1[C@H](C2)N(C)CC3 (some centres unmarked) [BS-FC-417]	anti-RPMI8226 activity increase over fangchinoline [3, 18]: 2 fold; IC50 [11]: 1.73 µg/mL (≈ 2.25 µM); IC90 [11]: 4.47 µg/mL (≈ 5.82 µM); IC50 [12]: 1.8 µg/mL (≈ 2.34 µM); IC90 [12]: 5.79 µg/mL (≈ 7.54 µM); IC50 [13]: 2.36 µg/mL (≈ 3.07 µM); IC90 [13]: 6.03 µg/mL (≈ 7.85 µM); IC50 [14]: 2 µg/mL (≈ 2.6 µM); IC90 [14]: 3.6 µg/mL (≈ 4.69 µM); IC50 [15]: 1.49 µg/mL (≈ 1.94 µM); IC90 [15]: 12.9 µg/mL (≈ 16.8 µM); IC50 [16]: 1.09 µg/mL (≈ 1.42 µM); IC90 [16]: 2.27 µg/mL (≈ 2.96 µM); IC50 [17]: 1.49 µg/mL (≈ 1.94 µM); IC90 [17]: 4.25 µg/mL (≈ 5.53 µM); antitumor activity compared with that of fangchinoline (tumor): significantly superior
0.51 µg/mL (≈ 0.66 µM)	0.98 µg/mL (≈ 1.27 µM)	0.57 µg/mL (≈ 0.737 µM)	1.85 µg/mL (≈ 2.39 µM)	0.13 µg/mL (≈ 0.168 µM)	0.49 µg/mL (≈ 0.634 µM)	1.83 µg/mL (≈ 2.37 µM)	5.04 µg/mL (≈ 6.52 µM)	1.95 µg/mL (≈ 2.52 µM)	7.37 µg/mL (≈ 9.54 µM)	2.95 µg/mL (≈ 3.82 µM)	4.8 µg/mL (≈ 6.21 µM)	3.08 µg/mL (≈ 3.99 µM)	8.39 µg/mL (≈ 10.9 µM)	2.87 µg/mL (≈ 3.71 µM)	3.96 µg/mL (≈ 5.12 µM)	1.36 µg/mL (≈ 1.76 µM)	4.38 µg/mL (≈ 5.67 µM)	1.53 µg/mL (≈ 1.98 µM)	3.03 µg/mL (≈ 3.92 µM)	COc1cc(OC)cc(C(=O)Oc2c(OC)cc3c4c2Oc2cc5c(cc2OC)CCN(C)[C@H]5Cc2ccc(cc2)Oc2cc(ccc2OC)C[C@@H]4N(C)CC3)c1 [BS-FC-311]	anti-Kasumi-1 activity increase over fangchinoline ([2]; relative to fangchinoline, Table 1): ~2 fold; IC50 [11]: 0.5 µg/mL (≈ 0.647 µM); IC90 [11]: 2.89 µg/mL (≈ 3.74 µM); anti-Hela activity increase over fangchinoline [11, 18]: ~4 fold; IC50 [12]: 1.4 µg/mL (≈ 1.81 µM); IC90 [12]: 2.76 µg/mL (≈ 3.57 µM); IC50 [13]: 1.64 µg/mL (≈ 2.12 µM); IC90 [13]: 4.85 µg/mL (≈ 6.28 µM); IC50 [14]: 2 µg/mL (≈ 2.59 µM); IC90 [14]: 4.37 µg/mL (≈ 5.65 µM); IC50 [15]: 1.4 µg/mL (≈ 1.81 µM); IC90 [15]: 4.79 µg/mL (≈ 6.2 µM); IC50 [16]: 1.32 µg/mL (≈ 1.71 µM); IC90 [16]: 3.24 µg/mL (≈ 4.19 µM); IC50 [17]: 1.25 µg/mL (≈ 1.62 µM); IC90 [17]: 3.8 µg/mL (≈ 4.92 µM); antitumor activity compared with that of fangchinoline (tumor): significantly superior

Source: US9328122B2, “7-substituted Hanfangichin B derivative, and preparation method and use thereof” (HANGZHOU BENSHENG PHARMACEUTICAL CO., LTD., priority 2012, dated 2016)
